Measurements from ChEMBL document CHEMBL1148124, “New lanostanoids, elfvingic acids A-H, from the fruit body of Elfvingia applanata” (J Nat Prod, 2002).
≈ marks a conversion by molar mass, not a printed value.

What was measured:
[1] = Cytotoxicity against human KATO III cells after 72 hrs by MTT assay; assay type: functional, cell-based, KATO III cell
Ehrlich = experiment: Cytotoxicity against mouse Ehrlich cells after 72 hrs by MTT assay; assay type: functional, cell-based

| SMILES | IC50 [1] [µg/mL] | IC50 (Ehrlich) [µg/mL] |
| --- | --- | --- |
| C=C(C)[C@@H]1C[C@H]2O[C@@]23C(=CC(=O)[C@]2(C)[C@@H](/C(C)=C\C(O)CC(C)C(=O)O)C[C@@H](O)[C@]23C)[C@@]1(C)CCC(=O)OC (some centres undefined) | 1.1 (≈ 2.02 µM) | 1.1 (≈ 2.02 µM) |
| CC(C)c1cccc(=O)c(O)c1 [HINOKITIOL] | 0.6 (≈ 3.65 µM) | 0.6 (≈ 3.65 µM) |
